The record followed here is ChEMBL document CHEMBL2157888, “The therapeutic journey of benzimidazoles: a review” (Bioorg Med Chem, 2012).

The target in data set [1] is T1, C-C chemokine receptor type 3 (Homo sapiens, UniProt P51677).
T1 sequence (P51677 whole entry): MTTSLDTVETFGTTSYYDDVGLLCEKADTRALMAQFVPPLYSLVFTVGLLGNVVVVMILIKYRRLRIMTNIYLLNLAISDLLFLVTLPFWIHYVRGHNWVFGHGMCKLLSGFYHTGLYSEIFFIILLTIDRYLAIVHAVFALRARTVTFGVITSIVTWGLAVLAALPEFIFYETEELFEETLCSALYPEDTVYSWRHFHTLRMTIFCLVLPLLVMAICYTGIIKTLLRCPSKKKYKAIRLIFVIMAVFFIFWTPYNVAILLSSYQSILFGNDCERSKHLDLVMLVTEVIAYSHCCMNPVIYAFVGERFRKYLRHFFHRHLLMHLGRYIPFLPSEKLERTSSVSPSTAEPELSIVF
As to the kind of experiment: Inhibition of CCR3 receptor.

In data set [2] the target is T2, Gonadotropin-releasing hormone receptor (Homo sapiens, UniProt P30968).
T2 sequence (P30968 whole entry): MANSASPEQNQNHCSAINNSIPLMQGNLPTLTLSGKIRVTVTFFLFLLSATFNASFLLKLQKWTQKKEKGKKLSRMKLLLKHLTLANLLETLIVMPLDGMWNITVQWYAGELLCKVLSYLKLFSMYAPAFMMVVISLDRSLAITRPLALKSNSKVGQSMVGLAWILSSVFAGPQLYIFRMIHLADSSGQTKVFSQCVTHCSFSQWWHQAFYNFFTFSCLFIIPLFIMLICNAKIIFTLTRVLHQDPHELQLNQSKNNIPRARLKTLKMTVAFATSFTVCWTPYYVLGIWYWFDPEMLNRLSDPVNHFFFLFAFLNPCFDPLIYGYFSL
Kind of data set: Inhibition of GnRH receptor.

Data set [3] in a line: Aqueous solubility of the compound. The data set is classed as physicochemical. The settings on record: water (aqueous).

≈ marks a conversion by molar mass, not a printed value.

In general, Ki refers to the dissociation constant of the complex between target and ligand, obtained from inhibition or displacement. A low value points to a stronger hold on the target. For the molecule `Fc1ccc2c(c1)nc(CC(F)(F)F)n2C1CCNCC1`, the affinity in data set [1] corresponds to a Ki of 100 nM.

Molecule `Fc1ccc(SCCCN2CCC(n3c(CC(F)(F)F)nc4cc(F)ccc43)CC2)cc1` returned a Ki in data set [1] of 9 nM.

In general, IC50 refers to the concentration that gives 50% inhibition. Low values mean greater potency in that assay, high ones weaker potency in that assay. What is called solubility is how much of the substance goes into solution per volume. A lower solubility goes with a poorly soluble substance. In turn, `CCc1cc(CN2CCN(c3cccc4[nH]c(-c5ccc(C(C)(C)C)cc5)nc34)CC2)nn1C` had an IC50 in data set [2] of 7 nM. Besides, the concentration in solution in data set [3] (solubility) came to 55 µg/mL (≈ 120 µM).

In data set [3], `CCCn1cc(CN2CCN(c3cccc4[nH]c(-c5ccc(C(C)(C)C)cc5)nc34)CC2)nc1C` gave a solubility of 100 µg/mL (≈ 212 µM).
